Legend:
PI3 Kinase (p120γ) (h) = target: T1, PI3 Kinase (p120γ) (h) (Homo sapiens, UniProt P48736); experiment: Inhibition of phosphatidylinositol 3-kinase gamma (PI3K γ), pAkt Western blotting in C5a-stimulated RAW264.7 macrophages; format: cell-based, mouse; details: ATP=10 uM, sample concentration=100 nM
T1 construct: endogenous in cells; host or cells: RAW264.7
Protocol: (§1) The stimulated cells were transferred in a 1.5 mL tube, followed by centrifugation at 3000 rpm for 1 minute. 100 μL of RIPA buffer (radioimmunoprecipitation assay buffer, 50 mM Tris-HCl, 5 mM EDTA, 150 mM NaCl, 1% NP-40, 1 mM PMSF, pH 8.0; ELPIS, Korea) was added thereto, which was stored in a 4° C. refrigerator for 12 hours. Centrifugation was performed at 4° C. at 14,000 rpm for 20 minutes. The supernatant was transferred into a new 1.5 mL tube. Protein was quantified by BCA (bicinchoninic acid) method and samples were prepared. The composition of the sample was as follows: sample buffer (ELPIS, EBA-1052) 5×, protein 10 μg, and 1× sample buffer to make the total volume 20 μL. The sample was heated at 100° C. for 5 minutes. The evaporated water vapor was condensed in a refrigerator. The liquid stained on the wall was fallen down by centrifugation for a few seconds. The sample proceeded to 10% SDS (Sodium Dodecyl Sulfate) acrylamide gel for separation. The separated protein was transferred onto PVDF (poly-vinyl difluoride) membrane, followed by reaction with pAkt (phospho protein kinase B) antibody (Ser473 or Thr308; Cell signaling, 9271s or 13038s) for 12 hours at 4° C. The membrane was washed with TBST (Tris-Buffered Saline with Tween 20, 10 mM Tris-HCl, pH 7.5, 150 mM NaCl, 0.1% Tween-20) three times for 5 minutes each, to which the secondary antibody (rabbit antibody, Santacruz, sc-2004) was added, followed by reaction at room temperature for 2 hours. The membrane was washed with TBST three times for 10 minutes each, to which ECL (enhanced chemiluminescence, Thermo, NCI34095KR) was sprayed. Bands were investigated by using LAS-3000.
The inhibition of phosphatidylinositol 3 kinase gamma (PI3K γ) by those compounds prepared in Examples 1˜98 was investigated by the following experiment. The inhibition activity of each compound was measured in the following conditions: ATP=10 uM, and sample concentration=100 nM.
(§2) Macrophages (RAW264.7) cultured in DMEM (Dulbecco's Modified Eagle Medium, Hyclon, SH30243.01) supplemented with 10% fetal bovine serum (Hyclon, USA) were distributed in a 12-well plate at the density of 1,000,000 cells/well. The cells were stabilized in a 37° C. CO2 for 24 hours and then treated with each compound for 1 and half hours. The cells were treated with 10 ng/mL of C5a (complement component 5a, 10 μg/mL; R&D, 2150-C5) to increase the intracellular activity of PI3K gamma. 5 minutes later, the medium was discarded and the cells were washed with cold PBS (phosphate buffered saline, Gibco, 14190-250). PBS was then eliminated completely by using a pipette. Western blotting was performed according to the same manner as described in step 2 of Experimental Example 1 to evaluate the intracellular PI3K gamma activity.

[1] = target: T2, PI3 Kinase (p110δ/p85α) (h) (Homo sapiens, UniProt O00329); experiment: Inhibition of phosphatidylinositol 3-kinase delta (PI3K δ), pAkt Western blotting in IgM-stimulated Raji cells; format: cell-based; details: ATP=10 uM, sample concentration=100 nM
T2 construct: endogenous in cells; host or cells: Raji
Protocol: as §1
The inhibition of phosphatidylinositol 3 kinase delta (PI3K δ) by those compounds prepared in Examples 1˜98 was investigated by the following experiment. The inhibition activity of each compound was measured in the following conditions: ATP=10 uM, and sample concentration=100 nM.
as §2, with “Raji cells” for “Macrophages (RAW264.7)”, “RPMI1640 (Hyclone, SH30027.02)” for “DMEM (Dulbecco's Modified Eagle Medium, Hyclon, SH30243.01)”, “0.25 μg/mL” for “10 ng/mL”, “IgM (immunoglobulin M, Southern Biotech, USA)” for “C5a (complement component 5a, 10 μg/mL; R&D, 2150-C5)”, “delta. 30” for “gamma. 5”, “delta” for “gamma”

T2 sequence (O00329 whole entry): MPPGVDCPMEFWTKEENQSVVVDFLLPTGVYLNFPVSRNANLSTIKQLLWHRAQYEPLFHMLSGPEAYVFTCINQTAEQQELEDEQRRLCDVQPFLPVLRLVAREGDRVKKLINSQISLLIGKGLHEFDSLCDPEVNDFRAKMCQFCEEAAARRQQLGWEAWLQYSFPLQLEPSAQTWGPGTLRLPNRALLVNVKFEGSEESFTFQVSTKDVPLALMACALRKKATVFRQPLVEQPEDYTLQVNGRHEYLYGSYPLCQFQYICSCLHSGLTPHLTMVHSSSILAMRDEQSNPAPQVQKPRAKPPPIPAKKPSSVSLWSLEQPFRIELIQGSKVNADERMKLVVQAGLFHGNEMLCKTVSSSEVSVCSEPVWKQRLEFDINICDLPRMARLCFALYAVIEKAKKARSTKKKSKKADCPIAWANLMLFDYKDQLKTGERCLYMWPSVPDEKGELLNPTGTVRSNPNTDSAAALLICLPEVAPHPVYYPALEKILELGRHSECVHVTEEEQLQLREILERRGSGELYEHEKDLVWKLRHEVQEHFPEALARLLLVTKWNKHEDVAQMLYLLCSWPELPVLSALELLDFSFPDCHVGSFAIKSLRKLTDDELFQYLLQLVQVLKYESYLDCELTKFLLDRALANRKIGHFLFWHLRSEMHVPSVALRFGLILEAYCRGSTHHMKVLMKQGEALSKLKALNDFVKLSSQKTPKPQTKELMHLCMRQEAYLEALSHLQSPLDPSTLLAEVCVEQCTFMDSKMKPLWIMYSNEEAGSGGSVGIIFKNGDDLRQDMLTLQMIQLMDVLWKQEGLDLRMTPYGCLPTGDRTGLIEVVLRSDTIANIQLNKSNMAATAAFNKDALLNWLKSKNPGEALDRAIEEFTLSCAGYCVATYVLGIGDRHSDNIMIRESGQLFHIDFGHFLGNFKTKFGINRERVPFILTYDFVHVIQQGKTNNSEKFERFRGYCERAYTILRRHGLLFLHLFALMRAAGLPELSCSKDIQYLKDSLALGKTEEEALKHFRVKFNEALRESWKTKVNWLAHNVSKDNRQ
T2 sequence (P27986 whole entry partner): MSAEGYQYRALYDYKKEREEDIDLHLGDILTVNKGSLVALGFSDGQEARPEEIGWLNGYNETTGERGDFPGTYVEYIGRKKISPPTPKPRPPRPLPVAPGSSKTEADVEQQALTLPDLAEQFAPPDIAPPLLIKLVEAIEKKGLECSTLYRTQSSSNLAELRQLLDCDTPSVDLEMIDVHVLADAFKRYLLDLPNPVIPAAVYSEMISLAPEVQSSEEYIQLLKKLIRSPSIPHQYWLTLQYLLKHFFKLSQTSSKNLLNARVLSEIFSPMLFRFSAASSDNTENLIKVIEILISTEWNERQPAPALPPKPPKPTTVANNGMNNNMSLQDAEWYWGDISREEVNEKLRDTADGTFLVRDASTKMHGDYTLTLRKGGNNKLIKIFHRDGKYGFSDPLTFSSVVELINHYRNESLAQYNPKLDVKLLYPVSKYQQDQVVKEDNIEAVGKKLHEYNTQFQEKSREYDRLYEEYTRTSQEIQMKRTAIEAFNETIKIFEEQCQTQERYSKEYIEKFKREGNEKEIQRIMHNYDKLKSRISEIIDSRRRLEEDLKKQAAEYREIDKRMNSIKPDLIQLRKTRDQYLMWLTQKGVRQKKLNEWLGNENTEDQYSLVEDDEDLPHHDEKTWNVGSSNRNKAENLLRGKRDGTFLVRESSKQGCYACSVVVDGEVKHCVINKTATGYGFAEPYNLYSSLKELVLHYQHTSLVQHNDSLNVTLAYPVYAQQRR
T1 sequence (P48736 whole entry): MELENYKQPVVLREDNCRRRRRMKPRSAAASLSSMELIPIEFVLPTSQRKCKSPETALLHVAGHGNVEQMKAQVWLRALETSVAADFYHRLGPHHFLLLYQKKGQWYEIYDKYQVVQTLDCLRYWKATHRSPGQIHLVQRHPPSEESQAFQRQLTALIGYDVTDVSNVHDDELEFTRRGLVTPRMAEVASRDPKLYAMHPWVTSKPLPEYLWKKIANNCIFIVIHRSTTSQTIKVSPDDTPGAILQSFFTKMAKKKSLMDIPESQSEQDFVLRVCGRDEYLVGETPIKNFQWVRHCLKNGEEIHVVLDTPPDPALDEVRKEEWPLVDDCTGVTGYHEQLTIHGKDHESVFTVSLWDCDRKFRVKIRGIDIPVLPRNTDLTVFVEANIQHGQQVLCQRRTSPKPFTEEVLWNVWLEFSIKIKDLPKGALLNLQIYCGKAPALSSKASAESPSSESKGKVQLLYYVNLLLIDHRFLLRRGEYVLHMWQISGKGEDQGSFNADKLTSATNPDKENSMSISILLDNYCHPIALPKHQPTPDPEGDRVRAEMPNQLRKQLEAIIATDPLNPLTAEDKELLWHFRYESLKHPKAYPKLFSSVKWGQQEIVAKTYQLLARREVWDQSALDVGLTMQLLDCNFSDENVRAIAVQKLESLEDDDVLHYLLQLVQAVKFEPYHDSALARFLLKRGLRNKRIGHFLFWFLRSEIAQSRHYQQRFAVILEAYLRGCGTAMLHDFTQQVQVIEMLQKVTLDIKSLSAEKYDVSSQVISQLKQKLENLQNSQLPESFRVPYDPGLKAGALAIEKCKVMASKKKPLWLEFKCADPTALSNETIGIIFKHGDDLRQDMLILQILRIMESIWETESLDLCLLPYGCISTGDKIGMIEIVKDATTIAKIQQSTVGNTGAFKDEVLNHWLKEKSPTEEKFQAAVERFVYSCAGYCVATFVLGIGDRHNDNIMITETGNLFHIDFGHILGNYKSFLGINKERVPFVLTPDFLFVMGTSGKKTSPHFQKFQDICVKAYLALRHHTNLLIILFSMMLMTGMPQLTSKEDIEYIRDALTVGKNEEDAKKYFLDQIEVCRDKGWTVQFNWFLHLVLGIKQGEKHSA

IC50 (PI3 Kinase (p120γ) (h)) [nM]	IC50 [1] [nM]	SMILES
10 to 500	< 10	CN1CNc2ncnc(N3CCC[C@H]3c3nc4cccc(Cl)c4c(=O)n3-c3cccc(F)c3)c2C1=O [Example 44, (S)-5-(2-(5-chloro-3-(3-fluorophenyl)-4-oxo-3,4-dihydroquinazoline-2-yl)pyrrolidine-1-yl)-3-methyl-2,3-dihydropyrimido[4,5-d]pyrimidine-4(1H)-one]
> 500	> 500	O=c1nc[nH]c2ncnc(N3CCC[C@H]3c3nc4cccc(Cl)c4c(=O)n3-c3cccc(F)c3)c12 [Example 77, (S)-5-(2-(5-chloro-3-(3-fluorophenyl)-4-oxo-3,4-dihydroquinazoline-2-yl)pyrrolidine-1-yl)pyrimido[4,5-d]pyrimidine-4(1H)-one]
10 to 500	< 10	C[C@H](Nc1nc(N)nc2c1C(=O)N(C)CN2)c1nc2cccc(Cl)c2c(=O)n1-c1cccc(F)c1 [Example 50, (S)-7-amino-5-((1-(5-chloro-3-(3-fluorophenyl)-4-oxo-3,4-dihydroquinazoline-2-yl)ethyl)amino)-3-methyl-2,3-dihydropyrimido[4,5-d]pyrimidine-4(1H)-one]
> 500	> 500	Nc1nc(N2CCC[C@H]2c2nc3cccc(Cl)c3c(=O)n2-c2ccccc2)c2c(=O)nc[nH]c2n1 [Example 90, (S)-7-amino-5-(2-(5-chloro-4-oxo-3-phenyl-3,4-dihydroquinazoline-2-yl)pyrrolidine-1-yl)pyrimido[4,5-d]pyrimidine-4(1H)-one]
> 500	> 500	CN1CNc2nc(N)nc(N3CCC[C@H]3c3nc4cccc(Cl)c4c(=O)n3-c3cccnc3)c2C1=O [Example 56, (S)-7-amino-5-(2-(5-chloro-4-oxo-3-(pyridine-3-yl)-3,4-dihydroquinazoline-2-yl)pyrrolidine-1-yl)-3-methyl-2,3-dihydropyrimido[4,5-d]pyrimidine-4(1H)-one]
10 to 500	< 10	Cc1cccc(-n2c([C@H](C)Nc3ncnc4c3C(=O)N(C)CN4)nc3cccc(Cl)c3c2=O)c1 [Example 37, (S)-5-((1-(5-chloro-4-oxo-3-(m-tolyl)-3,4-dihydroquinazoline-2-yl)ethyl)amino)-3-methyl-2,3-dihydropyrimido[4,5-d]pyrimidine-4(1H)-one]
10 to 500	10 to 500	C[C@H](Nc1ncnc2c1C(=O)N(C)CN2)c1nc2cccc(Cl)c2c(=O)n1-c1cccnc1 [Example 35, (S)-5-((1-(5-chloro-4-oxo-3-(pyridine-3-yl)-3,4-dihydroquinazoline-2-yl)ethyl)amino)-3-methyl-2,3-dihydropyrimido[4,5-d]pyrimidine-4(1H)-one]
10 to 500	10 to 500	CN1CNc2ncnc(N3CCC[C@H]3c3nc4cccc(Cl)c4c(=O)n3-c3ccccc3)c2C1=O [Example 42, (S)-5-(2-(5-chloro-4-oxo-3-phenyl-3,4-dihydroquinazoline-2-yl)pyrrolidine-1-yl)-3-methyl-2,3-dihydropyrimido[4,5-d]pyrimidine-4(1H)-one]
10 to 500	< 10	C[C@H](Nc1ncnc2c1C(=O)CCN2)c1cc2cccc(Cl)c2c(=O)n1-c1ccccc1 [Example 97, (S)-4-((1-(8-chloro-1-oxo-2-phenyl-1,2-dihydroisoquinoline-3-yl)ethyl)amino)-7,8-dihydropyrido[2,3-d]pyrimidine-5(6H)-one]
> 500	> 500	CN1CNc2nc(N)nc(N3CCC[C@H]3c3cc4cccc(Cl)c4c(=O)n3-c3ccccc3)c2C1=O [Example 59, (S)-7-amino-5-(2-(8-chloro-1-oxo-2-phenyl-1,2-dihydroisoquinoline-3-yl)pyrrolidine-1-yl)-3-methyl-2,3-dihydropyrimido[4,5-d]pyrimidine-4(1H)-one]
> 500	> 500	O=c1nc[nH]c2ncnc(N3CCC[C@H]3c3nc4cccc(Cl)c4c(=O)n3-c3cccnc3)c12 [Example 76, (S)-5-(2-(5-chloro-4-oxo-3-(pyridine-3-yl)-3,4-dihydroquinazoline-2-yl)pyrrolidine-1-yl)pyrimido[4,5-d]pyrimidine-4(1H)-one]
10 to 500	10 to 500	CC(Nc1ncnc2c1C(=O)N(C)CN2)c1cc2ccccc2nc1-c1ccccc1 (stereo not shown) [Example 39, 3-methyl-5-((1-(2-phenylquinoline-3-yl)ethyl)amino)-2,3-dihydropyrimido[4,5-d]pyrimidine-4(1H)-one]
> 500	> 500	Cc1cccc(-n2c([C@@H]3CCCN3c3nc(N)nc4[nH]cnc(=O)c34)nc3cccc(Cl)c3c2=O)c1 [Example 93, (S)-7-amino-5-(2-(5-chloro-4-oxo-3-(m-tolyl)-3,4-dihydroquinazoline-2-yl)pyrrolidine-1-yl)pyrimido[4,5-d]pyrimidine-4(1H)-one]
10 to 500	< 10	CN1CNc2ncnc(N3CCC[C@H]3c3cc4cccc(Cl)c4c(=O)n3-c3ccccc3)c2C1=O [Example 46, (S)-5-(2-(8-chloro-1-oxo-2-phenyl-1,2-dihydroisoquinoline-3-yl)pyrrolidine-1-yl)-3-methyl-2,3-dihydropyrimido[4,5-d]pyrimidine-4(1H)-one]
> 500	10 to 500	Cc1cccc(-n2c([C@H](C)Nc3ncnc4[nH]cnc(=O)c34)nc3cccc(Cl)c3c2=O)c1 [Example 69, (S)-5-((1-(5-chloro-4-oxo-3-(m-tolyl)-3,4-dihydroquinazoline-2-yl)ethyl)amino)pyrimido[4,5-d]pyrimidine-4(1H)-one]
10 to 500	10 to 500	Cc1cccc(-n2c([C@@H]3CCCN3c3ncnc4c3C(=O)N(C)CN4)nc3cccc(Cl)c3c2=O)c1 [Example 45, (S)-5-(2-(5-chloro-4-oxo-3-(m-tolyl)-3,4-dihydroquinazoline-2-yl)pyrrolidine-1-yl)-3-methyl-2,3-dihydropyrimido[4,5-d]pyrimidine-4(1H)-one]
< 10	10 to 500	C[C@H](Nc1ncnc2c1C(=O)N(C)CN2)c1cc2ccccc2nc1-c1ccccc1 [Example 39-1, (S)-3-methyl-5-((1-(2-phenylquinoline-3-yl)ethyl)amino)-2,3-dihydropyrimido[4,5-d]pyrimidine-4(1H)-one]
< 10	< 10	C[C@H](Nc1nc(N)nc2c1C(=O)N(C)CN2)c1cc2cccc(Cl)c2c(=O)n1-c1ccccc1 [Example 52, (S)-7-amino-5-((1-(8-chloro-1-oxo-2-phenyl-1,2-dihydroisoquinoline-3-yl)ethyl)amino)-3-methyl-2,3-dihydropyrimido[4,5-d]pyrimidine-4(1H)-one]
> 500	> 500	C[C@H](Nc1nc(N)nc2[nH]cnc(=O)c12)c1nc2cccc(Cl)c2c(=O)n1-c1cccc(F)c1 [Example 83, (S)-7-amino-5-((1-(5-chloro-3-(3-fluorophenyl)-4-oxo-3,4-dihydroquinazoline-2-yl)ethyl)amino)pyrimido[4,5-d]pyrimidine-4(1H)-one]
10 to 500	< 10	C[C@H](Nc1nc(N)nc2[nH]cnc(=O)c12)c1nn2ccc(Cl)c2c(=O)n1-c1cccc(F)c1 [Example 87, (S)-7-amino-5-((1-(5-chloro-3-(3-fluorophenyl)-4-oxo-3,4-dihydropyrrolo[2,1-f][1,2,4]triazine-2-yl)ethyl)amino)pyrimido[4,5-d]pyrimidine-4(1H)-one]

Reference: patent publication US10526337B2, “Heteroaryl derivative or pharmaceutically acceptable salt thereof, preparation method therefor, and pharmaceutical composition for preventing or treating diseases associated with PI3 kinases, containing same as active ingredient” (KOREA RESEARCH INSTITUTE OF CHEMICAL TECHNOLOGY, priority 2015, dated 2020)
